Values after ≈ are worked out from the molar mass of the structure shown. Active and inactive are the calls of the source. The calls are words filed in the database; no cut-off is given here.
Assays:
[1] = system: Escherichia coli; experiment: Antibacterial activity against mucosa-associated Escherichia coli isolates isolated from patients with Crohn's disease by disk diffusion method; assay type: functional
[2] = system: Escherichia coli; experiment: Antibacterial activity against Escherichia coli isolate HM605 isolated from colonic mucosal biopsies of patient with Crohn's disease after 24 hrs by Etest antibiotic concentration gradient method; assay type: functional; details: isolate HM605, 24 h
[3] = system: Escherichia coli; experiment: Antibacterial activity against Escherichia coli ATCC 25922 after 24 hrs by Etest antibiotic concentration gradient method; assay type: functional, organism-based
[4] = system: Escherichia coli; experiment: Antibacterial activity against Escherichia coli isolate HM605 isolated from colonic mucosal biopsies of patient with Crohn's disease
[5] = system: Escherichia coli; experiment: Antibacterial activity against gentamicin-treated internalized Escherichia coli isolate HM605 isolated from colonic mucosal biopsies of patient with Crohn's disease in mouse J774A1 cells assessed as intracellular killing of bacteria at 3.2 ug/ml after 3 hrs; assay type: functional, J774.A1
[6] = system: Escherichia coli; experiment: Antibacterial activity against extracellular Escherichia coli isolate HM605 isolated from colonic mucosal biopsies of patient with Crohn's disease at 0.1 to 100 ug/ml after 3 hrs; assay type: functional, organism-based
[7] = system: Escherichia coli; experiment: Antibacterial activity against gentamicin-treated internalized Escherichia coli isolate HM605 in mouse J774A1 cells isolated from colonic mucosal biopsies of patient with Crohn's disease assessed as intracellular killing of bacteria at 0.1 to 100 ug/ml after 3 hrs; assay type: functional, organism-based; details: J774.A1
[8] = system: Escherichia coli; experiment: Antibacterial activity against gentamicin-treated internalized Escherichia coli isolate HM605 in mouse J774A1 cells isolated from colonic mucosal biopsies of patient with Crohn's disease assessed as intracellular killing of bacteria at 0.1 to 100 ug/ml after 6 hrs; assay type: functional, organism-based; details: J774.A1
[9] = system: Escherichia coli; experiment: Antibacterial activity against gentamicin-treated internalized Escherichia coli isolate HM605 in mouse J774A1 cells isolated from colonic mucosal biopsies of patient with Crohn's disease assessed as intracellular killing of bacteria at 0.1 to 100 ug/ml after 24 hrs; assay type: functional, organism-based; details: J774.A1
[10] = system: Escherichia coli; experiment: Antibacterial activity against Escherichia coli isolate HM605 isolated from colonic mucosal biopsies of patient with Crohn's disease assessed as killing of bacteria at 100 ug/ml; assay type: functional
[11] = system: Escherichia coli; experiment: Antibacterial activity against extracellular Escherichia coli isolate HM605 isolated from colonic mucosal biopsies of patient with Crohn's disease at 0.01 to 10 ug/ml after 3 hrs; assay type: functional, organism-based
[12] = system: Escherichia coli; experiment: Antibacterial activity against extracellular Escherichia coli isolate HM605 isolated from colonic mucosal biopsies of patient with Crohn's disease assessed as colony count at 0.1 to 100 ug/ml after 3 hrs; assay type: functional, organism-based
[13] = system: Escherichia coli; experiment: Antibacterial activity against gentamicin-treated internalized Escherichia coli isolate HM605 in mouse J774A1 cells isolated from colonic mucosal biopsies of patient with Crohn's disease assessed as intracellular killing of bacteria at 10% compound Cmax after 3 hrs; assay type: functional, J774.A1
[14] = system: Escherichia coli; experiment: Antibacterial activity against gentamicin-treated internalized Escherichia coli isolate LF82 in mouse J774A1 cells isolated from chronic ileal lesions of patient with Crohn's disease assessed as intracellular killing of bacteria at 10% compound Cmax after 3 hrs; assay type: functional, J774.A1
[15] = system: Escherichia coli; experiment: Antibacterial activity against gentamicin-treated internalized Escherichia coli isolate HM580 in mouse J774A1 cells isolated from colonic mucosal biopsies of patient with Crohn's disease assessed as intracellular killing of bacteria at 10% compound Cmax after 3 hrs; assay type: functional, J774.A1
[16] = system: Escherichia coli; experiment: Antibacterial activity against gentamicin-treated internalized Escherichia coli isolate HM615 in mouse J774A1 cells isolated from colonic mucosal biopsies of patient with Crohn's disease assessed as intracellular killing of bacteria at 10% compound Cmax after 3 hrs; assay type: functional, J774.A1
[17] = system: J774.A1; experiment: Cytotoxicity against mouse J774A1 cells assessed as release of adenylate kinase at 100 ug/ml after 3 hrs […] relative to control; assay type: cell-based; details: j774.a1, 3 h
[18] = Cmax in healthy human at 500 mg administered orally; assay type: ADME, organism-based; design: dose 500 mg, route oral; details: in vivo, po
[19] = system: Escherichia coli; experiment: Antibacterial activity against Escherichia coli isolates isolated from patients with Crohn's disease at 15 ug/disk by susceptibility testing disk method; assay type: functional
[20] = system: Escherichia coli; experiment: Antibacterial activity against Escherichia coli isolate HM154 isolated from colonic mucosal biopsies of patient with Crohn's disease after 24 hrs by Etest antibiotic concentration gradient method; assay type: functional; details: isolate HM154, 24 h
[21] = system: Escherichia coli; experiment: Antibacterial activity against Escherichia coli isolate HM580 isolated from colonic mucosal biopsies of patient with Crohn's disease after 24 hrs by Etest antibiotic concentration gradient method; assay type: functional; details: isolate HM580, 24 h
[22] = system: Escherichia coli; experiment: Antibacterial activity against gentamicin-treated internalized Escherichia coli isolate HM605 isolated from colonic mucosal biopsies of patient with Crohn's disease in mouse J774A1 cells assessed as intracellular killing of bacteria at 0.4 ug/ml after 3 hrs; assay type: functional, J774.A1
[23] = system: Escherichia coli; experiment: Antibacterial activity against Escherichia coli isolate HM615 isolated from colonic mucosal biopsies of patient with Crohn's disease after 24 hrs by Etest antibiotic concentration gradient method; assay type: functional; details: isolate HM615, 24 h
[24] = system: Escherichia coli; experiment: Antibacterial activity Escherichia coli isolate HM413 isolated from ileo-colonic mucosal biopsies of patient with Crohn's disease after 24 hrs by Etest antibiotic concentration gradient method; assay type: functional; details: isolate HM413, 24 h
[25] = system: Escherichia coli; experiment: Antibacterial activity Escherichia coli isolate HM419 isolated from ileo-colonic mucosal biopsies of patient with Crohn's disease after 24 hrs by Etest antibiotic concentration gradient method; assay type: functional; details: isolate HM419, 24 h
[26] = system: Escherichia coli; experiment: Antibacterial activity against Escherichia coli isolate HM95 isolated from ileal mucosal biopsies of patient with Crohn's disease after 24 hrs by Etest antibiotic concentration gradient method; assay type: functional; details: isolate HM95, 24 h
[27] = system: Escherichia coli; experiment: Antibacterial activity against mucosa-associated Escherichia coli isolate HM428 isolated from patient with irritable bowel syndrome or sporadic polyps after 24 hrs by Etest antibiotic concentration gradient method; assay type: functional; details: isolate HM428, 24 h
[28] = system: Escherichia coli; experiment: Antibacterial activity against mucosa-associated Escherichia coli isolate HM454 isolated from patient with irritable bowel syndrome or sporadic polyps after 24 hrs by Etest antibiotic concentration gradient method; assay type: functional; details: isolate HM454, 24 h
[29] = system: Escherichia coli; experiment: Antibacterial activity against mucosa-associated Escherichia coli isolate HM456 isolated from patient with irritable bowel syndrome or sporadic polyps after 24 hrs by Etest antibiotic concentration gradient method; assay type: functional; details: isolate HM456, 24 h
[30] = Cmax in patient with Crohn's disease at 500 mg administered orally; assay type: ADME, organism-based; design: dose 500 mg, route oral; details: human, in vivo, po
[31] = system: Escherichia coli; experiment: Antibacterial activity against Escherichia coli isolates isolated from patients with Crohn's disease at 5 ug/disk by susceptibility testing disk method; assay type: functional
[32] = system: Escherichia coli; experiment: Antibacterial activity against gentamicin-treated internalized Escherichia coli isolate HM605 isolated from colonic mucosal biopsies of patient with Crohn's disease in mouse J774A1 cells assessed as intracellular killing of bacteria at 3 ug/ml after 3 hrs; assay type: functional, J774.A1
[33] = system: J774.A1; experiment: Cytotoxicity against mouse J774A1 cells assessed as macrophage number at 3 ug/ml after 3 hrs by total cell protein assay; assay type: cell-based; details: j774.a1, 3 h
[34] = system: Escherichia coli; experiment: Antibacterial activity against Escherichia coli K-12 after 24 hrs by Etest antibiotic concentration gradient method; assay type: functional; details: K-12, 24 h

CC1(C)S[C@@H]2[C@H](NC(=O)[C@H](N)c3ccccc3)C(=O)N2[C@H]1C(=O)O [AMPICILLIN]
Activity [1]: 95%
MIC [2]: > 256 µg/mL
Activity [3]: Active
MBC [4]: > 100 µg/mL
Activity [5]: 11.1%
Activity [6]: Active
Activity [7]: inactive
Activity [8]: inactive
Activity [9]: inactive
Activity [10]: 99.8%
Activity [11]: Active
Activity [12]: Active
Activity [13]: 20.4%
Activity [14]: 10.9%
Activity [15]: 9.6%
Activity [16]: 13.8%
Activity [17]: 90%
Cmax [18]: 3200 ng/mL

CC[C@H]1OC(=O)[C@H](C)[C@@H](O[C@H]2C[C@@](C)(OC)[C@@H](O)[C@H](C)O2)[C@H](C)[C@@H](O[C@@H]2O[C@H](C)C[C@H](N(C)C)[C@H]2O)[C@](C)(O)C[C@@H](C)CN(C)[C@H](C)[C@@H](O)[C@]1(C)O [AZITHROMYCIN]
Activity [19]: 78%
MIC [20]: ≤ 2 µg/mL
MIC [21]: ≤ 2 µg/mL
MIC [2]: 3 µg/mL (≈ 4.01 µM)
MBC [4]: 5 µg/mL (≈ 6.68 µM)
Activity [22]: 41%
Activity [11]: Active
MIC [23]: ≤ 2 µg/mL
MIC [24]: ≤ 2 µg/mL
MIC [25]: ≤ 2 µg/mL
MIC [26]: ≤ 2 µg/mL
MIC [27]: ≤ 2 µg/mL
MIC [28]: ≤ 2 µg/mL
MIC [29]: ≤ 2 µg/mL
Activity [17]: 90%
Cmax [30]: 400 ng/mL

O=C(N[C@H](CO)[C@H](O)c1ccc([N+](=O)[O-])cc1)C(Cl)Cl [CHLORAMPHENICOL]
Activity [1]: 62%
Activity [17]: 90%

CC[C@H]1OC(=O)[C@H](C)[C@@H](O[C@H]2C[C@@](C)(OC)[C@@H](O)[C@H](C)O2)[C@H](C)[C@@H](O[C@@H]2O[C@H](C)C[C@H](N(C)C)[C@H]2O)[C@](C)(OC)C[C@@H](C)C(=O)[C@H](C)[C@@H](O)[C@]1(C)O [CLARITHROMYCIN]
Activity [31]: 0%
MIC [20]: ≥ 16 µg/mL
MIC [21]: ≥ 16 µg/mL
MIC [2]: 16 µg/mL (≈ 21.4 µM)
MBC [4]: 3 µg/mL (≈ 4.01 µM)
Activity [32]: 62.1%
Activity [11]: Active
Activity [13]: 33.5%
Activity [14]: 55.2%
Activity [15]: 57.5%
Activity [16]: 81.8%
Activity [33]: 73.4
MIC [23]: ≥ 16 µg/mL
MIC [24]: ≥ 16 µg/mL
MIC [25]: ≥ 16 µg/mL
MIC [26]: ≥ 16 µg/mL
MIC [27]: ≥ 16 µg/mL
MIC [28]: ≥ 16 µg/mL
MIC [29]: ≥ 16 µg/mL
MIC [34]: 24 µg/mL (≈ 32.1 µM)
Activity [17]: 90%
Cmax [18]: 3000 ng/mL

CCn1cc(C(=O)O)c(=O)c2ccc(C)nc21 [NALIDIXIC ACID]
Activity [1]: 100%
Activity [17]: 90%

CC1(C)S[C@@H]2[C@H](NC(=O)Cc3ccccc3)C(=O)N2[C@H]1C(=O)O [PENICILLIN G]
Activity [1]: 0%
Activity [17]: 90%

From ChEMBL document CHEMBL1151474, “Replication of Colonic Crohn's Disease Mucosal Escherichia coli Isolates within Macrophages and Their Susceptibility to Antibiotics” (Antimicrob Agents Chemother, 2008)
